The text below walks through data of ChEMBL document CHEMBL5653631, “A Potent and Selective ULK1 Inhibitor Suppresses Autophagy and Sensitizes Cancer Cells to Nutrient Stress” (iScience, 2018).

The target of assay [1] is T1, Mitogen-activated protein kinase kinase kinase 2 (Homo sapiens) (UniProt Q9Y2U5).
T1 sequence (whole entry): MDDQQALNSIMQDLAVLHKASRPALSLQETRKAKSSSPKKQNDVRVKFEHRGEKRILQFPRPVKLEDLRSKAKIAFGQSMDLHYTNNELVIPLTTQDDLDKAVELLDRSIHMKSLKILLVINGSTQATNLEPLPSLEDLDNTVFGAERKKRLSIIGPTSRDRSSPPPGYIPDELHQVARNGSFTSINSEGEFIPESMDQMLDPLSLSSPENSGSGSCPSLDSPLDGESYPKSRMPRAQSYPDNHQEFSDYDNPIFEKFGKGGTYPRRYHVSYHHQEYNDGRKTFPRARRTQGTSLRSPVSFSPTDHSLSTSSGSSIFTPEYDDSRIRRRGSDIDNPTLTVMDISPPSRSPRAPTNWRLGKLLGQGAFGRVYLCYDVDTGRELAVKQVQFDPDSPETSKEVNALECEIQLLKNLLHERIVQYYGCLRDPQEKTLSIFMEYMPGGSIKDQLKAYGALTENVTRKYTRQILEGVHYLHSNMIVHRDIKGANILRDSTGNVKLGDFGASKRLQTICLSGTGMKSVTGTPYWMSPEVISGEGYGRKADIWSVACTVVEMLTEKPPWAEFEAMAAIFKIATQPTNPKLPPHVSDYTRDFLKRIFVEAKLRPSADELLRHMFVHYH
Briefly: Inhibition of human recombinant MAP3K2 at 40 nM in presence of ATP by radiometric assay relative to control.

Assay [2] has as its target T2, Ephrin type-B receptor 3 (Homo sapiens) (UniProt P54753).
T2 sequence (whole entry): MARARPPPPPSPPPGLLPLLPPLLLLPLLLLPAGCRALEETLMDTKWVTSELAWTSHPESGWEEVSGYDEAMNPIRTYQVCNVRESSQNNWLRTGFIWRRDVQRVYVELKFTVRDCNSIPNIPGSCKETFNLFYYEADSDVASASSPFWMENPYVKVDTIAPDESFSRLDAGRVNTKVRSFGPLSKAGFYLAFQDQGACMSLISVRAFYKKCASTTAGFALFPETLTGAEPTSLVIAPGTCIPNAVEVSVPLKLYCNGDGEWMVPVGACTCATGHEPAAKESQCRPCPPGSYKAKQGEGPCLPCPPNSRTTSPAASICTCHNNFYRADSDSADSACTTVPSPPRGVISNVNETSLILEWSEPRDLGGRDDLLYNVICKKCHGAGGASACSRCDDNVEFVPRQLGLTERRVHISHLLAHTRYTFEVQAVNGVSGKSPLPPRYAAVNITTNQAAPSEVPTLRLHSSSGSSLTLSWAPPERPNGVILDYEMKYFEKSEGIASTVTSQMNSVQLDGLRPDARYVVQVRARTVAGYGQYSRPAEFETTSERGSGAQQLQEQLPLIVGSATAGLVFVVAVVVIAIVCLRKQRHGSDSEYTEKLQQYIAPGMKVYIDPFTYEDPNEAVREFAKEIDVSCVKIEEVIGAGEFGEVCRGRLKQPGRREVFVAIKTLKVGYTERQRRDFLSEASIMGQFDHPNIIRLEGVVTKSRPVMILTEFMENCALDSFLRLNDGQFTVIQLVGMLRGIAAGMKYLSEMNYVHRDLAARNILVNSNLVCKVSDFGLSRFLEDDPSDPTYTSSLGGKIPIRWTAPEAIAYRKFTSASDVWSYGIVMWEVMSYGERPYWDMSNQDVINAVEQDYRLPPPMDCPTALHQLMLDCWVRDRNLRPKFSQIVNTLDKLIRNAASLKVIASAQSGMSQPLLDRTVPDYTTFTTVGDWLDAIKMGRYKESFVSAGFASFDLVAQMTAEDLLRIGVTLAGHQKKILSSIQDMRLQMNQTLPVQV
Briefly: Inhibition of human recombinant EphB3 at 500 nM related to control ULK1.

Assay [3] concerns the target T3, cGMP-dependent protein kinase 1 (Homo sapiens) (UniProt Q13976).
T3 sequence (whole entry): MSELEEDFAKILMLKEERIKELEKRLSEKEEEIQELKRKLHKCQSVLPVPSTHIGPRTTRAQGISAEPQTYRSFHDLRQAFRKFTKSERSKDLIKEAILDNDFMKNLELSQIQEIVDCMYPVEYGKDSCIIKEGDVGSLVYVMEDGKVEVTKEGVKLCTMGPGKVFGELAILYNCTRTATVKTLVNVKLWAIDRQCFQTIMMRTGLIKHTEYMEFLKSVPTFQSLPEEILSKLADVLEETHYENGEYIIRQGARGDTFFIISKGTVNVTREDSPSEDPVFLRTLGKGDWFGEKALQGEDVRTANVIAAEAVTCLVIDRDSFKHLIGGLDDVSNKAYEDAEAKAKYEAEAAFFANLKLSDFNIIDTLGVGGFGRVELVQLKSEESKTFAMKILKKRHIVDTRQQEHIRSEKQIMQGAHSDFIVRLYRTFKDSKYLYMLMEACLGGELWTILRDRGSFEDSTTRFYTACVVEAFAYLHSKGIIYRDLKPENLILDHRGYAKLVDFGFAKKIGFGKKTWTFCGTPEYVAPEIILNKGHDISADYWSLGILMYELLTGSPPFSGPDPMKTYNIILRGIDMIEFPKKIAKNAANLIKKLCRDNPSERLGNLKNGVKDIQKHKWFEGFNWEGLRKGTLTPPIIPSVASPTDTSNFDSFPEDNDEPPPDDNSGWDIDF
Briefly: Inhibition of human recombinant PKG1 at 500 nM related to control ULK1.

As to `O=C(N[C@@H](C1CC1)C(F)(F)F)c1cc(-c2cnn3cc(-c4ccc(F)cc4)cnc23)cs1`, the inhibition in assay [1] is 0%.
For `CNC(=O)c1ccccc1Oc1nc(Nc2cc(OC)c(OC)c(OC)c2)ncc1Br`, the values for the fold change (FC) in assay [2] and in assay [3] were 0 and 0.05, respectively.

As a reminder, the inhibition is the relative decrease from the control value, in per cent.
